Data reported in patent US12017975B2, “Myc-Max inhibitor compound therapeutics for cancer treatment, methods and uses associated therewith” (THE UNIVERSITY OF BRITISH COLUMBIA, priority 2018, dated 2024).
Read-outs that look alike come from different tables or passages of the source.

Tested on: Myc-Max transcriptional activity
Test: Cignal c-Myc luciferase reporter assay in LNCaP cells
Format: cell-based
Conditions: Homo sapiens, LNCaP; for IC50: TABLE 2, assay not named, values match Myc-Max transcriptional activity, read-out: IC50
Description: Cell transfection was performed using TransIT-2020™ transfection reagents according to the manufacturer's instructions (Mirus™). LNCaP cells were plated at 10000 cells per well and treated for 1 day with the indicated concentration of compound. Myc reporter activity was measured using the Cignal Myc Reporter Assay Kit™ from Qiagen™ (#336841) according to the manufacturer's instructions. For the UBE2C reporter assay, 22rv1 cells were plated at 10000 cells per well in 96-well plates in RPMI media supplemented with 5% charcoal-stripped serum (CSS) and treated for 1 day with 1 μM, 10 μM and 25 μM of compound.
Compounds were subjected to experimental evaluation using the commercially available transcriptional assay Cignal c-Myc luciferase reporter assay in LNCaP cells. […] A transiently transfected Myc-driven luciferase reporter allowed the monitoring of Myc-regulated signal in LNCaP upon treatment with the in silico identified compounds.

[1] = TABLE 5, read-out: % Inhibition 25 μM
[2] = TABLE 3, read-out: % Inhibition 25 μM

| Structure (SMILES) | inhibition at 25 µM [1] | inhibition at 25 µM [2] | inhibition at 5 µM (TABLE 3) | inhibition at 10 µM (TABLE 3) | also measured |
| --- | --- | --- | --- | --- | --- |
| Cc1nc(C(=O)NC[C@@H](O)COCc2ccccc2)c2ccccn12 [VPC-70267] | 47% | – | – | – | – |
| COc1ccc2[nH]cc(CCNC(=O)CCc3nc(-c4ccccc4)no3)c2c1 [VPC-70277] | – | 95% | – | – | IC50: > 25 µM |
| O=C(CSc1nc2ccccc2c(=O)n1CCCO)NC(=O)Nc1ccccc1F [VPC-70355] | 51% | – | – | – | – |
| Cc1c(NC(=O)[C@H](C)OC(=O)c2cccc(O)c2)c(=O)n(-c2ccccc2)n1C [VPC-70216] | 40% | – | – | – | – |
| Cc1cc(NC(=S)NCC(C)C)cc(C(F)(F)F)c1 [VPC-70478] | – | 91% | 26% | 65% | – |
| NS(=O)(=O)c1cc(F)cc(NC(=S)NCc2ccccc2)c1 [VPC-70525] | – | 102% | 40% | 35% | – |
| C[C@H]1CC[C@H](C(N)=O)CN1C(=O)c1cccc(S(=O)(O)=Nc2cccc(Cl)c2)c1 [VPC-70366] | 60% | – | – | – | – |
| FC(F)(F)c1cccc(NC(=S)Nc2ccc(Cl)c(C(F)(F)F)c2)c1 [VPC-70514] | – | 102% | 109% | 110% | – |
| O=C1/C(=C/c2cccs2)SC(=S)N1c1cccc(O)c1 [VPC-70005] | – | – | – | – | inhibition at 25 µM (TABLE 4, read-out: % Inhibition (25 μM)): 65%; inhibition at 25 µM (24 h, LNCaP cells, TABLE 1, read-out: Myc-Max transcriptional activity % inhibition (25 μM)): 65%; IC50: > 25 µM |
| S=C(NCc1ccccc1)Nc1cc(Cl)cc(Cl)c1 [VPC-70498] | – | 100% | 36% | 106% | – |
| O=C(CCN1C(=O)S/C(=C\c2ccccc2)C1=O)NCCc1c[nH]c2ccccc12 [VPC-70388] | – | 77% | – | – | IC50: 20 µM |
| FC(F)(F)c1cc(Br)cc(NC(=S)NCc2cccs2)c1 [VPC-70495] | – | 100% | 107% | 80% | IC50: 5 µM |
| O=C(O)CCC1CCN(C(=O)c2ccc(S(=O)(=O)NCc3cccs3)cc2)CC1 [VPC-70344] | 49% | – | – | – | – |
| O=C(CNC(=O)NCc1ccc(F)cc1)NCc1ccc(OC(F)(F)F)cc1 [VPC-70222] | 68% | – | – | – | – |
| O=C(NCCc1c[nH]c2ccccc12)c1coc2ccccc2c1=O [VPC-70219] | 67% | – | – | – | IC50: > 25 µM |
| O=C(CCc1csc(NC(=O)c2ccc(F)cc2)n1)NCCc1ccccc1 [VPC-70131] | 50% | – | – | – | – |
| S=C(NCc1ccccc1)Nc1cccc(COc2ccccc2)c1 [VPC-70526] | – | 94% | 41% | 62% | – |
| CC(C)(C)CNC(=S)Nc1cccc(C(F)(F)F)c1 [VPC-70529] | – | 94% | 14% | 52% | – |
| C[C@@H]1CCCC[C@@H]1NC(=O)NCCCn1ccc2ccccc21 [VPC-70255] | 40% | – | – | – | – |
| Cc1cccc(CSc2nc(O)c3c(n2)NC(=O)C[C@H]3C(=O)Nc2cccc(F)c2)c1 [VPC-70384] | 53% | – | – | – | – |
| C[C@@H]1CN(Cc2ccc(CNC(=S)Nc3cccc(C(F)(F)F)c3)cc2)C[C@@H](C)O1 [VPC-70506] | – | 89% | 73% | 66% | – |
| O=C(CCc1c[nH]c2ccccc12)NCc1noc(-c2ccccc2)n1 [VPC-70240] | 48% | – | – | – | – |
